Assay results taken from patent US4996214A, “Quinolinyl substituted phenyl/thioalkanoic acid substituted propionic acids and leucotriene antagonist use thereof” (SmithKline Beecham Corporation, priority 1990, dated 1991).

Biological target: T1, LTD4 (Cavia porcellus, UniProt Q2NNR5)
T1 construct: tracheal spiral strips of approximate dimensions 2 to 3 mm cross-sectional width; from tissue; host or cells: guinea pig (adult male albino Hartley) tracheal spiral strips
T1 sequence (Q2NNR5 1-340): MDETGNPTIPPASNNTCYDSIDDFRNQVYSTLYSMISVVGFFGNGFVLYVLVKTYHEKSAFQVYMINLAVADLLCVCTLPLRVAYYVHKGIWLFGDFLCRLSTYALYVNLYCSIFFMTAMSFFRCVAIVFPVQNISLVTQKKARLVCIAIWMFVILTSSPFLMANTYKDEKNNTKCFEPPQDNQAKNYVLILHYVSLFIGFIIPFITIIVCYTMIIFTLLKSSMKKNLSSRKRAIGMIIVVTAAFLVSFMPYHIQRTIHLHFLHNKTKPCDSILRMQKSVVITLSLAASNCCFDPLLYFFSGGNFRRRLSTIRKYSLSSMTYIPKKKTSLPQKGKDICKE
Test: inhibition of leukotriene (LTD4) induced contraction of guinea pig tracheal tissues in vitro
Assay type: cell-based
Description: The leukotriene antagonist activity of the compounds of this invention was measured by the ability of the compounds to inhibit the leukotriene induced contraction of guinea pig tracheal tissues in vitro. The following methodology was employed: In vitro: Guinea pig (adult male albino Hartley strain) tracheal spiral strips of approximate dimensions 2 to 3 mm cross-sectional width and 3.5 cm length were bathed in modified Krebs buffer in jacketed 10 ml tissue bath and continuously aerated with 95% O2 /5% CO2. The tissues were connected via silk suture to force displacement transducers for recording isometric tension. The tissues were equilibrated for 1 hour, pretreated for 15 minutes with meclofenamic acid ([…]) to remove intrinsic prostaglandin responses, and then pretreated for an additional 30 minutes with either the test compound or vehicle control. […]
Calculations: The averages of the triplicate LTD4 concentration-response curves both in the presence and absence of the test compound were plotted on log graph paper. The concentration of LTD4 needed to elicit 30% of the contraction elicited by carbachol was measured and defined as the EC30. The -log KB value for the test compound was determined by the following equations: [formula] […]
The antagonist activity of representative compounds of this invention is tabulated below. The -log KB values were calculated from the above test protocols. […]

Kb (LTD4 concentration-response on guinea pig tracheal spiral strips, EC30 shift, 30 min pretreatment with test compound, read-out: pKB (-log KB) (converted)): 31.6 nM
Ki (stated as 'in this assay', separate method not given): 7.7 nM
SMILES: O=C(O)CCSC(CC(=O)O)c1ccccc1CCCCCCCc1ccc2ccc(Cl)cc2n1 (centres unmarked) [3-{2-[7-(2-(7-Chloro)quinolinyl)heptyl]phenyl}-3,3'-thiodipropionic acid]
